From US9340521B2, “Method for dual inhibition of SGLT1 and SGLT2 using diphenylmethane derivatives” (GREEN CROSS CORPORATION, priority 2013, dated 2016)

Key:
Human SGLT1 (hSGLT1) = Human SGLT1 (hSGLT1) (Homo sapiens (Human), UniProt P13866); assay: Inhibitory effects on human SGLT1 activities (14C-AMG uptake, sodium-dependent glucose transport assay); type: cell-based; details: 37° C. for 2 h, single determinations
Human SGLT2 (hSGLT2) = Human SGLT2 (hSGLT2) (Homo sapiens (Human), UniProt P31639); assay: Inhibitory effects on human SGLT2 activities (14C-AMG uptake, sodium-dependent glucose transport assay); type: cell-based; details: hSGLT2-expressing CHO cells, 37° C. for 2 h, single determinations
Method in brief: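 CHO cells stably expressing hSGLT2 were preincubated 10 min at 37 °C in choline (Na+-free) buffer, then exposed 2 h at 37 °C to compound in Na+ uptake buffer with 8 μM 14C-AMG and 1 mM unlabeled AMG. Radioactivity was scintillation counted; IC50 came from nonlinear regression.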

Sequence of Human SGLT2 (hSGLT2) (P31639 whole entry): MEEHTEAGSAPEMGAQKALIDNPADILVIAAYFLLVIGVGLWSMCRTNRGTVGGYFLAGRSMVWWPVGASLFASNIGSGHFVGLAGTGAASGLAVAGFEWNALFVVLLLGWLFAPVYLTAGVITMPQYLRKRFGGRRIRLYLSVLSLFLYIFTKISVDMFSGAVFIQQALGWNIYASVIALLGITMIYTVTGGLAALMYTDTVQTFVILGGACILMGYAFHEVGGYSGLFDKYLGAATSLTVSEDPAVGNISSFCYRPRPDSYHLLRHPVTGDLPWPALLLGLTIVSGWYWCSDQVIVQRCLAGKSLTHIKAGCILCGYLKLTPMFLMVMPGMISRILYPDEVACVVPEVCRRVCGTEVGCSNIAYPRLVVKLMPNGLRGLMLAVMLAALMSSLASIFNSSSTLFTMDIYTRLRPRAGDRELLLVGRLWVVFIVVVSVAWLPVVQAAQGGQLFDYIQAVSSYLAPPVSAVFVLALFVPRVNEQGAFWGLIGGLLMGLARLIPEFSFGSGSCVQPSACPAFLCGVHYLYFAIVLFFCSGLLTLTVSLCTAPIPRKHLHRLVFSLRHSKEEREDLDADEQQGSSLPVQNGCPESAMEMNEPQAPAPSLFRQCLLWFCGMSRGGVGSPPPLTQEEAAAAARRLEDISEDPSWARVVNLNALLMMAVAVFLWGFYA
Sequence of Human SGLT1 (hSGLT1) (P13866 whole entry): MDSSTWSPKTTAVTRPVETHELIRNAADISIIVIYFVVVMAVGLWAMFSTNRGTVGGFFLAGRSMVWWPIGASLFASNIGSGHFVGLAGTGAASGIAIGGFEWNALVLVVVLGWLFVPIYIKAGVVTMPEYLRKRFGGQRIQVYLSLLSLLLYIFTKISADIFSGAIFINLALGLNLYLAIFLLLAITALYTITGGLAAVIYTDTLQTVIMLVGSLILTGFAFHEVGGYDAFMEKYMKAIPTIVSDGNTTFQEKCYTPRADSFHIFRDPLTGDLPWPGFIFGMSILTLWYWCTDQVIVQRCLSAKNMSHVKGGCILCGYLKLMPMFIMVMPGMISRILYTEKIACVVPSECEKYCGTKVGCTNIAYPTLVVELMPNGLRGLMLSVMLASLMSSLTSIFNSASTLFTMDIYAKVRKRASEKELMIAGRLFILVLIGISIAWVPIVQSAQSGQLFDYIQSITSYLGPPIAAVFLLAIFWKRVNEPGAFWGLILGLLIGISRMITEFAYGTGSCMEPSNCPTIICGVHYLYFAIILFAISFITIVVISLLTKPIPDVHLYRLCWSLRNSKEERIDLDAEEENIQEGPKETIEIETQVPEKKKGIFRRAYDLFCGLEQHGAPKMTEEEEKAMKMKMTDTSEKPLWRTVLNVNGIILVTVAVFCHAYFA

Row | IC50 (Human SGLT1 (hSGLT1)) | IC50 (Human SGLT2 (hSGLT2)) | SMILES
1 | 23.2 nM | 0.85 nM | CSc1ccc(Cc2cc([C@@H]3O[C@H](CO)[C@@H](O)[C@H](O)[C@H]3O)c3c(c2Cl)OCCO3)cc1 [Compound E050, (2S,3R,4R,5S,6R)-2-(8-Chloro-7-(4-(methylthio)benzyl)-2,3-dihydrobenzo[b][1,4]dioxin-5-yl)-6-(hydroxymethyl)tetrahydro-2H-pyran-3,4,5-triol]
2 | 62.4 nM | 0.49 nM | CCOc1ccc(Cc2cc([C@@H]3O[C@H](SC)[C@@H](O)[C@H](O)[C@H]3O)c3c(c2Cl)OCO3)cc1 [Compound E051, (2S,3R,4R,5S,6R)-2-(7-Chloro-6-(4-ethoxybenzyl)benzo[d][1,3]dioxol-4-yl)-6-(methylthio)tetrahydro-2H-pyran-3,4,5-triol]
3 | 9.2 nM | 1.1 nM | Cc1ccc(Cc2cc([C@@H]3O[C@H](CO)[C@@H](O)[C@H](O)[C@H]3O)c3c(c2Cl)CCCO3)cc1 [Compound E052, (2S,3R,4R,5S,6R)-2-(5-Chloro-6-(4-methylbenzyl)chroman-8-yl)-6-(hydroxymethyl)tetrahydro-2H-pyran-3,4,5-triol]
4 | 41 nM | 1.5 nM | OC[C@H]1O[C@@H](c2cc(Cc3cc4ccccc4s3)c(Cl)c3c2OCO3)[C@H](O)[C@@H](O)[C@@H]1O [Compound E053, (2S,3R,4R,5S,6R)-2-(6-(Benzo[b]thiophen-2-ylmethyl)-7-chlorobenzo[d][1,3]dioxol-4-yl)-6-(hydroxymethyl)tetrahydro-2H-pyran-3,4,5-triol]
5 | 125 nM | 1.1 nM | OC[C@H]1O[C@@H](c2cc(Cc3ccc(-c4ccc(F)cc4)s3)c(Cl)c3c2OCCO3)[C@H](O)[C@@H](O)[C@@H]1O [Compound E054, (2S,3R,4R,5S,6R)-2-(8-Chloro-7-((5-(4-fluorophenyl)thiophen-2-yl)methyl)-2,3-dihydrobenzo[b][1,4]dioxin-5-yl)-6-(hydroxymethyl)tetrahydro-2H-pyran-3,4,5-triol]
6 | 148 nM | 1.4 nM | OC[C@H]1O[C@@H](c2cc(Cc3cc4ccccc4s3)c(Cl)c3c2CCO3)[C@H](O)[C@@H](O)[C@@H]1O [Compound E055, (2S,3R,4R,5S,6R)-2-(6-(Benzo[b]thiophen-2-ylmethyl)-7-chloro-2,3-dihydrobenzofuran-4-yl)-6-(hydroxymethyl)tetrahydro-2H-pyran-3,4,5-triol]
7 | 14 nM | 2.2 nM | OC[C@H]1O[C@@H](c2cc(Cc3cc4ccccc4s3)c(Cl)c3c2OCCO3)[C@H](O)[C@@H](O)[C@@H]1O [Compound E056, (2S,3R,4R,5S,6R)-2-(7-(Benzo[b]thiophen-2-ylmethyl)-8-chloro-2,3-dihydrobenzo[b][1,4]dioxin-5-yl)-6-(hydroxymethyl)tetrahydro-2H-pyran-3,4,5-triol]
8 | 11 nM | 0.86 nM | CCc1ccc(Cc2cc([C@@H]3O[C@H](CO)[C@@H](O)[C@H](O)[C@H]3O)c3c(c2Br)CCCC3)cc1 [Compound E057, (2S,3R,4R,5S,6R)-2-(4-Bromo-3-(4-ethylbenzyl)-5,6,7,8-tetrahydronaphthalen-1-yl)-6-(hydroxymethyl)tetrahydro-2H-pyran-3,4,5-triol]
9 | 17.1 nM | 0.87 nM | CCOc1ccc(Cc2cc([C@@H]3O[C@H](CO)[C@@H](O)[C@H](O)[C@H]3O)c3c(c2Br)CCCC3)cc1 [Compound E058, (2S,3R,4R,5S,6R)-2-(4-Bromo-3-(4-ethoxybenzyl)-5,6,7,8-tetrahydronaphthalen-1-yl)-6-(hydroxymethyl)tetrahydro-2H-pyran-3,4,5-triol]
10 | 95.1 nM | 1.1 nM | CCOc1ccc(Cc2cc([C@@H]3O[C@H](CO)[C@@H](O)[C@H](O)[C@H]3O)c3c(c2Cl)SCC3)cc1 [Compound E059, (2S,3R,4R,5S,6R)-2-(7-Chloro-6-(4-ethoxybenzyl)-2,3-dihydrobenzo[b]thiophen-4-yl)-6-(hydroxymethyl)tetrahydro-2H-pyran-3,4,5-triol]
11 | 40.9 nM | 0.67 nM | OC[C@H]1O[C@@H](c2cc(Cc3ccc(C4CC4)cc3)c(Cl)c3c2CCS3)[C@H](O)[C@@H](O)[C@@H]1O [Compound E060, (2S,3R,4R,5S,6R)-2-(7-Chloro-6-(4-cyclopropylbenzyl)-2,3-dihydrobenzo[b]thiophen-4-yl)-6-(hydroxymethyl)tetrahydro-2H-pyran-3,4,5-triol]
12 | 27 nM | 1.7 nM | Cc1ccc(Cc2cc([C@@H]3O[C@H](CO)[C@@H](O)[C@H](O)[C@H]3O)c3c(c2C)OCO3)cc1 [Compound E061, (2R,3S,4R,5R,6S)-2-(Hydroxymethyl)-6-(7-methyl-6-(4-methylbenzyl)benzo[d][1,3]dioxol-4-yl)tetrahydro-2H-pyran-3,4,5-triol]
13 | 163 nM | 1.1 nM | OC[C@H]1O[C@@H](c2cc(Cc3ccc(C4CCC4)cc3)c(Cl)c3c2OCCC3)[C@H](O)[C@@H](O)[C@@H]1O [Compound E062, (2S,3R,4R,5S,6R)-2-(5-Chloro-6-(4-cyclobutylbenzyl)chroman-8-yl)-6-(hydroxymethyl)tetrahydro-2H-pyran-3,4,5-triol]
14 | 66.2 nM | 1.6 nM | COc1ccc(Cc2cc([C@@H]3O[C@H](CO)[C@@H](O)[C@H](O)[C@H]3O)c3c(c2C)OCO3)cc1 [Compound E063, (2R,3S,4R,5R,6S)-2-(Hydroxymethyl)-6-(6-(4-methoxybenzyl)-7-methylbenzo[d][1,3]dioxol-4-yl)tetrahydro-2H-pyran-3,4,5-triol]
15 | 38.3 nM | 1.1 nM | CCc1ccc(Cc2cc([C@@H]3O[C@H](CO)[C@@H](O)[C@H](O)[C@H]3O)c3c(c2C)OCO3)cc1 [Compound E064, (2S,3R,4R,5S,6R)-2-(6-(4-Ethylbenzyl)-7-methylbenzo[d][1,3]dioxol-4-yl)-6-(hydroxymethyl)tetrahydro-2H-pyran-3,4,5-triol]
16 | 155 nM | 1.6 nM | CCOc1ccc(Cc2cc([C@@H]3O[C@H](CO)[C@@H](O)[C@H](O)[C@H]3O)c3c(c2C)OCO3)cc1 [Compound E065, (2S,3R,4R,5S,6R)-2-(6-(4-Ethoxybenzyl)-7-methylbenzo[d][1,3]dioxol-4-yl)-6-(hydroxymethyl)tetrahydro-2H-pyran-3,4,5-triol]
